Measured values reported in patent publication US20070054940A1, “Remedy for down's syndrome” (EISAI CO., LTD., priority 2003, published 2007).
Counter-ions that a name gives are not always drawn.

Key:
Down's syndrome = conditions: in vivo; cited from earlier work
[1] = Blood concentration in the patient with rapid retrogression; conditions: human, in vivo; 2 mg/day oral, house visit after 2 months
Description: It was confirmed that the subject was spontaneously getting up in the morning with extreme regularity. In addition, in daily activities the patient was sorting laundry, and before administration could not fold one piece in 30 minutes, but after administration could process 10 to 20 pieces in 10 minutes, and was approaching the level prior to the symptoms of rapid retrogression. Furthermore, the patient was able to spontaneously take medicine without the instruction of a parent. […] The blood concentration was 13.7 ng/mL.

[2] = system: Down's syndrome model mouse; conditions: cited from earlier work
[3] = system: human children with Down's syndrome; conditions: 25 human children with Down's syndrome; cited from earlier work

## N[C@@H](Cc1c[nH]c2ccc(O)cc12)C(=O)O [5-hydroxytryptophan]
Down's syndrome
  Development of motor skills, language skills, intelligence, or socialization: no efficacy was seen

## COc1cc2c(cc1OC)C(=O)C(CC1CCN(Cc3ccccc3)CC1)C2 (stereo not shown) [donepezil hydrochloride]
[1]
  concentration at 2 months: 13.7 ng/mL

## NC(=O)CN1CCCC1=O [piracetam]
[2]
  Cognitive function: an effect in improving cognitive function was seen
[3]
  Cognitive function: no improvement in cognitive function was seen
